Measured values reported in patent publication US20110178072A1, “STEREOSPECIFICITY OF METHYLSULFINYL REDUCTION” (priority 2008, published 2011).

Experiments:
mouse MsrB2 = mouse MsrB2 (Mus musculus, UniProt Q78J03); assay: Reduction of methylsulfinyl compounds by mouse MsrB2 (HPLC/GC analysis); format: biochemical; conditions: in the presence of DTT
Protocol: (§1) The isothiocyanate group in R,S-sulforaphane reacts with sulfhydryls to form conjugated compounds. First, the compound was treated with excess DTT (which has two free sulfhydryl groups) to conjugate the isothiocyanate group of R,S-sulforaphane or S-sulforaphane with the sulfhydryl group of DTT and the resulting adducts were then used as substrates for mouse MsrA and mouse MsrB2. The reduction of the DTT-sulforaphane adduct was analyzed using HPLC analysis of the adduct with buffer (as control; FIG. 12A), mouse MsrB2 (FIG. 12B), and mouse MsrA (FIG. 12C). The arrows indicate the migration of the DTT-erucin adduct. […] FIG. 13 illustrates the HPLC analysis of the DTT-R-sulforaphane adduct incubated with buffer (as control) (FIG. 13A), mouse MsrA (FIG. 13B), and mouse MsrB2 (FIG. 13C). Again, the arrows show the migration of the DTT-erucin adduct.
(§2) Mesoridazine, which has a mild effect on treating schizophrenia, was examined to determine its reduction by yeast fRMsr, mouse MsrB2, and mouse MsrA (FIG. 14). The peak of m/z 387.6 corresponds to the molecular weight of mesoridazine and the peak of m/z 371.6 corresponds to the molecular weight of thioridazine. FIG. 14B details the HPLC analysis of mesoridazine incubated with mouse MsrB2 and DTT. FIG. 14C provides the HPLC analysis of mesoridazine incubated with yeast fRMsr and DTT. FIG. 14D illustrates the specific activities of various Msrs for the reduction of mesoridazine (left to right): mouse MsrA in the presence of DTT as a reductant, mouse MsrA in the presence of the thioredoxin reducing system, mouse MsrB2 in the presence of DTT, and yeast fRMsr in the presence of DTT.
(§3) The reduction of triclabendazole sulfoxide was examined. This compound has been used to treat liver fluke, Fasciola hepatica and Fasciola gigantica, in sheep, goat, and cattle as a form of triclabendazole. Triclabendazole can be metabolized to several different forms including triclabendazole sulfoxide, which is an oxidized form of methylsulfide group, in biological systems. FIG. 15A provides an HPLC analysis of triclabendazole sulfoxide incubated with mouse MsrA and DTT. The peak of m/z 375.2 and 377.2 correspond to the molecular weight of triclabendazole sulfoxide and the peak of m/z 359.2 and 361.2 correspond to the molecular weight of triclabendazole. FIG. 15B illustrates an HPLC analysis of triclabendazole sulfoxide incubated with mouse MsrB2 and DTT. FIG. 15C details an HPLC analysis of triclabendazole sulfoxide incubated with yeast fRMsr and DTT. FIG. 15D illustrates the specific activities of various Msrs for the reduction of triclabendazole sulfoxide (left to right): mouse MsrA in the presence of DTT as a reductant, mouse MsrA in the presence of the thioredoxin reducing system, mouse MsrB2 in the presence of DTT, and yeast fRMsr in the presence of DTT.
Another methylsulfinyl-containing drug, sulmazole, was tested as a substrate for Msrs. This drug is pharmacologically active as a cardiotonic agent and is a phosphodiesterase inhibitor. FIG. 16A details an HPLC analysis of sulmazole incubated with mouse MsrA and DTT. The peak of m/z 288.3 corresponds to the molecular weight of sulmazole and the peak of m/z 272.3 corresponds to the molecular weight of reduced form of sulmazole. FIG. 16B illustrates an HPLC analysis of sulmazole incubated with mouse MsrB2 and DTT. FIG. 16C provides an HPLC analysis of sulmazole incubated with yeast fRMsr and DTT. […]

mouse MsrA = target: T1, mouse MsrA (Mus musculus, UniProt Q9D6Y7); assay: Reduction of methylsulfinyl compounds by mouse MsrA (HPLC/GC analysis); format: biochemical; conditions: DTT as a reductant
T1 sequence (Q9D6Y7 21-233): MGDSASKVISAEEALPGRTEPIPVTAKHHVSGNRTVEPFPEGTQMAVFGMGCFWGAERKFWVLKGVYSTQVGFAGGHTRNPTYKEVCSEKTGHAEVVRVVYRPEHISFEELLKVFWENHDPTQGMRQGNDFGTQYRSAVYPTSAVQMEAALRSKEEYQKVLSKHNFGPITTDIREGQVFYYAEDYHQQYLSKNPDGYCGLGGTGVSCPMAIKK
Protocol: as §1, §2, §3
Another methylsulfinyl-containing drug, sulmazole, was tested as a substrate for Msrs. This drug is pharmacologically active as a cardiotonic agent and is a phosphodiesterase inhibitor. FIG. 16A details an HPLC analysis of sulmazole incubated with mouse MsrA and DTT. The peak of m/z 288.3 corresponds to the molecular weight of sulmazole and the peak of m/z 272.3 corresponds to the molecular weight of reduced form of sulmazole. FIG. 16B illustrates an HPLC analysis of sulmazole incubated with mouse MsrB2 and DTT. FIG. 16C provides an HPLC analysis of sulmazole incubated with yeast fRMsr and DTT. FIG. 16D details the specific activities of various Msrs for the reduction of sulmazole (left to right): mouse MsrA in the presence of DTT as a reductant, mouse MsrA in the presence of the thioredoxin reducing system, mouse MsrB2 in the presence of DTT, and yeast fRMsr in the presence of DTT.
DMSO, which is used as a preservative for stem cells, solvent for drugs, and a drug itself with anti-inflammatory and free radical scavenging properties, was studied for its reduction by Msrs. FIG. 17A details a GC analysis of DMSO incubated with mouse MsrA and DTT. […]

[1] = system: MsrA-knockdown SK-Hep1 cells; assay: Growth of MsrA-knockdown SK-Hep1 cells on Met and Met sulfoxide media; format: cell-based, human; conditions: 0.1 mM, 96 hours
Protocol: Proliferation Assay—Cell growth was quantified using colorimetric MTS assay (Promega). Cells in regular DMEM medium were plated in 96-well plates at 5×10^3 cells/well, washed with PBS, and specialized DMEM media were added that contained Met, Met-SO, Met-RO, or Met-RSO 24 hours after plating. To assay for cell proliferation, a tetrazolium compound [3-(4,5-dimethylthiazol-2-yl)-5-(3-carboxymethoxyphenyl)-2-(4-sulfophenyl)-2H-tetrazolium, inner salt; MTS] and an electron coupling reagent (phenazine methosulfate; PMS) were mixed according to the manufacturer's protocol and then 20 μL of the mixture were added to 100 μL of phenol red-excluded media that further replaced cell culture media. After 90 minutes of incubation at 37° C. in the atmosphere of 5% CO2, cell proliferation was measured at indicated time periods from 0 to 96 hours at 450 nm in a plate reader. Direct counting of viable cells using 0.2% trypan blue was done in 6-well plates. Knockdown of MsrA in SK-Hep1 cells by siRNA—Double stranded siRNAs (Dharmacon) for targeting human MsrA mRNA were used to knockdown this gene in SK-Hep1 cells. Cells were transfected with siRNA by using DharmaFECT™ Transfection Reagent (Dharmacon) according to the manufacturer's protocol. Proliferation of these cells was assayed 60 hours after transfection in comparison with control transfected cells.

CBS = assay: Western blot analysis of CBS in SK-Hep1 cells grown on Met and Met sulfoxide media; format: cell-based, human; conditions: SK-Hep1 cells, 0.1 mM
Protocol: Analysis of SK-Hep1 and fRMsr-transfected SK-Hep1 cells—SK-Hep1 and fRMsr-transfected SK-Hep1 cells were plated in 6-well plates at 7.5×10^4 cells/well in regular DMEM medium. The medium was changed to Met-free DMEM supplemented with either Met or individual Met sulfoxides at 24 hours after plating. Cells were then collected every 24 hours until 96 hours. Protein concentration was measured by the Bradford assay and the samples were probed by standard immunoblot assays with polyclonal MsrA (kindly provided by Bertrand Friguet), cystathionine beta synthase (CBS) (kindly provided by Ruma Banerjee), and activating transcription factor 3 (ATF3) (Santa Cruz Biotechnology) antibodies.

selenoproteins = assay: 75Se metabolic labeling of SK-Hep1 cells grown on Met and Met sulfoxide media; format: cell-based, human; conditions: 0.1 mM of each amino acid
Protocol: ^75 Se Metabolic labeling—SK-Hep1 cells were plated in 6-well plates at 7.5×10^4 cells/well in 1.5 mL of regular DMEM medium. After 24 hours, cells were washed with PBS and the medium was changed to modified DMEM media containing Met, Met-SO, Met-RO, or Met-RSO (0.1 mM of each amino acid). 0.01 mCi of freshly neutralized [^75Se]selenious acid (specific activity 1,000 Ci/mmol, University of Missouri Research Reactor) was added in each well at 48 hours after changing the medium and cells were incubated at 37° C. for 24 hours in 5% CO2 atmosphere, followed by harvesting the cells. Cell extracts (30 μg of total protein) were electrophoresed on 10% Bis-Tris gels and transferred onto PVDF membranes (Invitrogen). The ^75Se radioactivity pattern was visualized by using a PhosphorImager (GE Health Care).

SK-Hep1 cells = assay: Growth and morphology of SK-Hep1 cells in Met-free DMEM supplemented with Met or Met sulfoxides (MTS proliferation assay, microscopy); format: cell-based, human; conditions: Met-free DMEM supplemented with 0.1 mM of the compound
Protocol: Cell culture—SK-Hep1 (ATCC: HTB-52™) and fRMsr-transfected SK-Hep1 cells were cultured in DMEM or Met-free DMEM (GIBCO) media, supplemented with 0.1 mM Met, 0.1 mM Met-RO, 0.1 mM Met-SO, or 0.1 mM Met-RSO. […] Thus, 0.1 mM Met sulfoxides were used in the experiments described below. Cell culture experiments, with the exception of a proliferation assay, were carried out in 6-well plates, and cells were maintained at 37° C. in a 5% CO2 atmosphere. Proliferation Assay—Cell growth was quantified using colorimetric MTS assay (Promega). Cells in regular DMEM medium were plated in 96-well plates at 5×10^3 cells/well, washed with PBS, and specialized DMEM media were added that contained Met, Met-SO, Met-RO, or Met-RSO 24 hours after plating. To assay for cell proliferation, a tetrazolium compound [3-(4,5-dimethylthiazol-2-yl)-5-(3-carboxymethoxyphenyl)-2-(4-sulfophenyl)-2H-tetrazolium, inner salt; MTS] and an electron coupling reagent (phenazine methosulfate; PMS) were mixed according to the manufacturer's protocol and then 20 μL of the mixture were added to 100 μL of phenol red-excluded media that further replaced cell culture media. After 90 minutes of incubation at 37° C. in the atmosphere of 5% CO2, cell proliferation was measured at indicated time periods from 0 to 96 hours at 450 nm in a plate reader. Direct counting of viable cells using 0.2% trypan blue was done in 6-well plates. Microscopy—A Nikon TE-300 Widefield Microscope was used to prepare images of SK-Hep1 cells grown on different Met and Met sulfoxide media. Microscopy analyses were carried out in the University of Nebraska Microscopy Core Facility.

yeast fRMsr = target: T2, yeast fRMsr (Saccharomyces cerevisiae, UniProt P36088); assay: Activity assay of purified recombinant yeast fRMsr towards free Met sulfoxides (HPLC, OPA derivatization); format: biochemical, S. cerevisiae; conditions: recombinant His-tagged yeast fRMsr
T2 construct: His-tag (C); made in house; host or cells: E. coli BL21 (DE3), pET21b
T2 sequence (P36088 1-180): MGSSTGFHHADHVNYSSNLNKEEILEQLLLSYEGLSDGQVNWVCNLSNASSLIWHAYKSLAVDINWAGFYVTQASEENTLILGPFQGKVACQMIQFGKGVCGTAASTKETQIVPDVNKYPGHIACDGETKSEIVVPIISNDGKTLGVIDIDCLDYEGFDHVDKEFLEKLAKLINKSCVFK
Description: Cloning and expression of yeast fRMsr—Characterization of S. cerevisiae fRMsr (YKL069W) is described in Le, D. T., et al. (2009) Functional analysis of free methionine-R-sulfoxide reductase from Saccharomyces cerevisiae. J Biol Chem., 284(7), 4354-4364. Briefly, a yeast fRMsr cDNA, which encodes a protein homologous to fRMsr from E. coli, was amplified from S. cerevisiae genomic DNA and subcloned into pET21b vector (Novagen) using primers 5′-AAACATATGATGGGCTCATCAACCGGGTTTC-3′ (sense; SEQ ID NO:1) and 5′-AAGCGGCCGCGACACATGATTTATTAATTAATTTAGCAAG-3′ (antisense; SEQ ID NO:2). After transformation into BL21 (DE3) E. coli, the subcloned sequence was verified by DNA sequencing. Cells with the plasmid in 500 mL LB medium containing 100 μg/mL ampicillin were grown until OD600 reached 0.6-0.8, followed by addition of IPTG to 0.3 mM. Protein expression was at 30° C. for 4 hours, followed by harvesting cells by centrifugation at 4,000 rpm for 5 minutes. Cells were washed with PBS and stored at −70° C. until use.
To purify the protein, a cell pellet was dissolved in resuspension buffer (Tris-HCl, pH 7.5, 15 mM imidazole, 300 mM NaCl), and PMSF was added to a final concentration of 0.5 mM. After sonication, the supernatant was collected by centrifugation at 8,000 rpm for 30 minutes. The supernatant was loaded onto a cobalt Talon resin (Clontech) pre-equilibrated with resuspension buffer. Following washing with the same buffer, the protein was eluted with elution buffer (Tris-HCl, pH 7.5, 300 mM imidazole, 300 mM NaCl). Fractions containing yeast fRMsr were pooled together and dialyzed overnight against PBS in a dialysis cassette (Pierce).
Activity assays of fRMsr—Reaction mixture (40 μL) included 50 mM DTT, 1 mM substrate (Met-RO or Met-SO), and purified enzyme or cell lysate prepared by treatment with CelLytic™M cell lysis reagent (Sigma). 20 μL of the reaction mixture was mixed with 2 μL of TCA and subjected to OPA derivatization as described above and then injected onto the column to measure endogenous Met level in the samples. An additional 20 μL from the same original reaction mixture were incubated at 37° C. for 30 minutes and then subjected to OPA derivatization by the same procedure using TCA. After derivatization of the sample (2-5 μL) by adding OPA solution to 100 μL as a final volume, 50 μL of the mixture were subjected to an HPLC separation as described above.

mouse MsrB2, sequence (Q78J03 43-175): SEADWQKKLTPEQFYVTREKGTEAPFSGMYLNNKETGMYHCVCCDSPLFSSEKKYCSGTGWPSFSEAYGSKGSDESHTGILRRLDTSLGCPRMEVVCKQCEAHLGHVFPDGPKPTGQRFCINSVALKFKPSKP

Structure (SMILES) | Reduction by mouse MsrB2 (mouse MsrB2) | Reduction by mouse MsrA (mouse MsrA) | Activity of recombinant yeast fRMsr protein towards the substrate (yeast fRMsr) | Selenoprotein patterns (75Se labeling) (selenoproteins) | Growth of SK-Hep1 cells (SK-Hep1 cells) | other results
C[S@@+]([O-])CCCCNC(=S)SCC(O)C(O)CS (stereo partly drawn) [DTT-R-sulforaphane adduct] | cannot be reduced | cannot be reduced |  |  |  | 
CSCC[C@H](N)C(=O)O [Met, methionine] |  |  |  | No difference was observed | grew best | Growth of MsrA-deficient cells [1]: still supported their growth; Expression of CBS (CBS): maintained stable CBS levels
C[S+]([O-])CC[C@H](N)C(=O)O (stereo partly drawn) [Met-RSO, L-Met-R,S-sulfoxide] |  |  |  | No difference was observed | could also proliferate | 

Further lines, with some results ahead:

Reduction by mouse MsrB2 (mouse MsrB2) | Reduction by mouse MsrA (mouse MsrA) | Activity of recombinant yeast fRMsr protein towards the substrate (yeast fRMsr) | Structure (SMILES) | Selenoprotein patterns (75Se labeling) (selenoproteins) | Growth of SK-Hep1 cells (SK-Hep1 cells) | other results
not by mouse MsrB2 | can be reduced |  | C[S@+]([O-])CCCCNC(=S)SCC(O)C(O)CS (stereo partly drawn) [DTT-S-sulforaphane adduct] |  |  | 
 |  | inactive | CN(C)c1ccc(/N=N/c2ccc(S(=O)(=O)N[C@@H](CC[S@@+](C)[O-])C(=O)O)cc2)cc1 [dabsyl-Met-RO] |  |  | 
 |  | inactive | CN(C)c1ccc(N=Nc2ccc(S(=O)(=O)N[C@@H](CC[S@+](C)[O-])C(=O)O)cc2)cc1 [dabsyl-Met-SO] |  |  | 
